Results published in US8865623B2, “Herbicidally active cyclic diones and derivatives thereof, processes for their preparation, compositions, and method of controlling weeds” (Syngenta Limited, priority 2009, dated 2014).

Assays:
Assay type in all cases: in vivo
Lolium perenne (LOLPE) [1] = experiment: Pre-emergence herbicidal activity, glasshouse pot test; conditions: Lolium perenne, 312 h; Rate 250 g/ha; pre-emergence spray; evaluated after 13 days; read-out: Pre-emergence activity LOLPE (100=total damage to plant; 0=no damage to plant)
Summary of the method: (§1)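 Seeds sown in standard soil in pots were sprayed 1 day after sowing (pre-emergence) or after 8 days' cultivation (post-emergence) with aqueous spray from acetone/water (50:50) formulation containing 0.5% Tween 20. Plants grew at 24/16° C day/night, 14 h light, 65% humidity, watered twice daily. Damage scored after 13 days, 0–100.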

Avena fatua (AVEFA) [2] = experiment: as above; conditions: Avena fatua, 312 h; Rate 250 g/ha; pre-emergence spray; evaluated after 13 days; read-out: Pre-emergence activity AVEFA (100=total damage to plant; 0=no damage to plant)
Summary of the method: as §1

[3] = tested on: Echinochloa crus-galli (ECHCG); experiment: as above; conditions: Echinochloa crus-galli, 312 h; Rate 250 g/ha; pre-emergence spray; evaluated after 13 days; read-out: Pre-emergence activity ECHCG (100=total damage to plant; 0=no damage to plant)
Summary of the method: as §1

[4] = tested on: Alopecurus myosuroides (ALOMY); experiment: as above; conditions: Alopecurus myosuroides, 312 h; Rate 250 g/ha; pre-emergence spray; evaluated after 13 days; read-out: Pre-emergence activity ALOMY (100=total damage to plant; 0=no damage to plant)
Summary of the method: as §1

Lolium perenne (LOLPE) [5] = experiment: Post-emergence herbicidal activity, glasshouse pot test; conditions: Lolium perenne, 312 h, rate 250 g/ha, evaluated after 13 days, glasshouse, read-out: Post-emergence activity LOLPE (100=total damage to plant; 0=no damage to plant)
Summary of the method: as §1

Avena fatua (AVEFA) [6] = experiment: as above; conditions: Avena fatua, 312 h, rate 250 g/ha, evaluated after 13 days, glasshouse, read-out: Post-emergence activity AVEFA (100=total damage to plant; 0=no damage to plant)
Summary of the method: as §1

[7] = tested on: Echinochloa crus-galli (ECHCG); experiment: as above; conditions: Echinochloa crus-galli, 312 h, rate 250 g/ha, evaluated after 13 days, glasshouse, read-out: Post-emergence activity ECHCG (100=total damage to plant; 0=no damage to plant)
Summary of the method: as §1

[8] = tested on: Alopecurus myosuroides (ALOMY); experiment: as above; conditions: Alopecurus myosuroides, 312 h, rate 250 g/ha, evaluated after 13 days, glasshouse, read-out: Post-emergence activity ALOMY (100=total damage to plant; 0=no damage to plant)
Summary of the method: as §1

Compound | pest or weed control at 250 g/ha (Lolium perenne (LOLPE) [1]) [%] | pest or weed control at 250 g/ha (Avena fatua (AVEFA) [2]) [%] | pest or weed control at 250 g/ha [3] [%] | pest or weed control at 250 g/ha [4] [%] | pest or weed control at 250 g/ha (Lolium perenne (LOLPE) [5]) [%] | pest or weed control at 250 g/ha (Avena fatua (AVEFA) [6]) [%] | pest or weed control at 250 g/ha [7] [%] | pest or weed control at 250 g/ha [8] [%]
CCc1ccc(Oc2ccc(Cl)cc2F)cc1C1=C(O)CCC(C)(C)C1=O [Example A-112] | 90 | 30 | 60 | 40 | 60 | 20 | 70 | 20
CCc1ccc(Oc2ccc(Br)cc2)cc1C1=C(O)CCC(C)(C)C1=O [Example A-113] | 100 | 30 | 60 | 30 | 40 | 0 | 90 | 10
CCc1ccc(Oc2ccc(Br)cc2F)cc1C1=C(O)CCC(C)(C)C1=O [Example A-114] | 90 | 50 | 60 | 20 | 50 | 10 | 80 | 10
CCc1ccc(Oc2nc(C(F)(F)F)c(C#N)s2)cc1C1=C(O)C(C)(C)OC(C)(C)C1=O [Example A-115] | 0 | 0 | 0 | 0 | 0 | 10 | 60 | 0
CCc1ccc(Oc2ccc(C#N)c(F)c2)cc1C1=C(O)C(C)(C)OC(C)(C)C1=O [Example A-116] | 20 | 0 | 20 | 0 | 40 | 30 | 100 | 80
CCc1ccc(Oc2cc(F)ccc2C#N)cc1C1=C(O)C(C)(C)OC(C)(C)C1=O [Example A-117] | 20 | 0 | 20 | 0 | 40 | 30 | 100 | 80
CCc1ccc(Oc2nc3ccccc3o2)cc1C1=C(O)C(C)(C)OC(C)(C)C1=O [Example A-118] | 100 | 80 | 100 | 100 | 100 | 80 | 100 | 90
CCc1ccc(Oc2cc(C)c(Cl)nn2)cc1C1=C(O)C(C)(C)OC(C)(C)C1=O [Example A-121] | 0 | 0 | 10 | 10 | 20 | 0 | 50 | 10
CCc1ccc(Oc2ncc(C)cn2)cc1C1=C(O)C(C)(C)OC(C)(C)C1=O [Example A-123] | 20 | 0 | 30 | 30 | 30 | 10 | 50 | 20
CCc1ccc(Oc2ccc(OC)nn2)cc1C1=C(O)C(C)(C)OC(C)(C)C1=O [Example A-124] | 0 | 0 | 10 | 0 | 10 | 0 | 40 | 10
CCc1ccc(Oc2ncnc3sccc23)cc1C1=C(O)C(C)(C)OC(C)(C)C1=O [Example A-126] | 0 | 0 | 10 | 0 | 10 | 20 | 50 | 10
CCc1ccc(Oc2nc(OC)cc(OC)n2)cc1C1=C(O)C(C)(C)OC(C)(C)C1=O [Example A-127] | 0 | 0 | 0 | 0 | 10 | 0 | 30 | 0
CCCc1cnc(Oc2ccc(CC)c(C3=C(O)C(C)(C)OC(C)(C)C3=O)c2)nc1 [Example A-128] | 60 | 10 | 50 | 20 | 40 | 30 | 70 | 50
CCc1ccc(Oc2cc(Cl)c(Cl)nn2)cc1C1=C(O)C(C)(C)OC(C)(C)C1=O [Example A-129] | 10 | 0 | 30 | 10 | 10 | 10 | 30 | 10
CCc1ccc(Oc2cc(Cl)nc(C)n2)cc1C1=C(O)C(C)(C)OC(C)(C)C1=O [Example A-130] | 0 | 0 | 30 | 0 | 10 | 0 | 40 | 10
CCc1ccc(Oc2ccc3nc(Cl)cn3n2)cc1C1=C(O)C(C)(C)OC(C)(C)C1=O [Example A-131] | 60 | 40 | 90 | 30 | 70 | 80 | 90 | 70
CCc1ccc(Oc2ncc(C)nc2C)cc1C1=C(O)C(C)(C)OC(C)(C)C1=O [Example A-135] | 10 | 0 | 30 | 10 | 30 | 20 | 50 | 30
CCc1ccc(Oc2nc(F)c(Cl)cc2Cl)cc1C1=C(O)C(C)(C)OC(C)(C)C1=O [Example A-140] | 50 | 0 | 50 | 20 | 70 | 70 | 100 | 70
CCc1ccc(Oc2nc(Cl)c(Cl)cc2Cl)cc1C1=C(O)C(C)(C)OC(C)(C)C1=O [Example A-142] | 10 | 0 | 40 | 20 | 10 | 20 | 70 | 20
CCc1ccc(Oc2ncc(Cl)cc2C(F)(F)F)cc1C1=C(O)C(C)(C)OC(C)(C)C1=O [Example A-143] | 70 | 40 | 100 | 60 | 100 | 100 | 100 | 100
CCc1ccc(Oc2cc(Cl)cc(Cl)n2)cc1C1=C(O)C(C)(C)OC(C)(C)C1=O [Example A-145] | 10 | 0 | 20 | 10 | 20 | 20 | 70 | 20
